Tests used:
velvetleaf [1] = test: Test Example 5: herbicidal effect by foliage application, plastic box (Table 20, symbol M); format: in vivo, velvetleaf (Abutilon theophrasti); conditions: foliage application, three weeks after application
In short: (§1)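 Sow seeds spot-wise in sterilized diluvial soil; cover with ~1.5 cm soil. Grow 14 days in greenhouse, 25° C. to 30° C. Spray foliage with emulsion diluted to predetermined amount. Rate effect after 3 weeks.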

persian speedwell = test: Test Example 4: herbicidal effect by soil treatment (Table 19, symbol R); format: in vivo, Persian speedwell (Veronica persica)
In short: (§2)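 Soil-surface application: an emulsion agent diluted with water to the predetermined dose is sprayed uniformly over seeds lying under roughly 1.5 cm of sterilized diluvial soil. Boxes stay in a greenhouse at 25° C. to 30° C. Three weeks later, each species is graded on previously defined criteria.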

southern crabgrass = test: Test Example 4: herbicidal effect by soil treatment (Table 19, symbol F); format: in vivo, southern crabgrass (Digitaria ciliaris)
In short: as §2

chickweed [2] = test: Test Example 5: herbicidal effect by foliage application, plastic box (Table 20, symbol P); format: in vivo, common chickweed (Stellaria media); conditions: foliage application, three weeks after application
In short: as §1

oval-leafed pondweed = test: Test Example 1: herbicidal activity, application before weed generation under submerged conditions (Table 16, symbol C); format: in vivo, oval-leafed pondweed (Monochoria vaginalis)
In short: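 Emulsion formulation, water-diluted to set dose, was put onto the flooded surface (4 cm depth, alluvial soil) the same day weeds were sown and 2.5-leaf rice transplanted. After 3 weeks at 25-30 °C under glass, each species was rated 0 (≤5% kill) to 5 (≥90% kill).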

chickweed [3] = test: Test Example 4: herbicidal effect by soil treatment (Table 19, symbol P); format: in vivo, common chickweed (Stellaria media)
In short: as §2

green foxtail = test: Test Example 4: herbicidal effect by soil treatment (Table 19, symbol G); format: in vivo, green foxtail (Setaria viridis)
In short: as §2

windgrass = test: Test Example 5: herbicidal effect by foliage application, plastic box (Table 20, symbol L); format: in vivo, windgrass (Apera spica-venti); conditions: foliage application, three weeks after application
In short: as §1

lambsquarters [4] = test: Test Example 5: herbicidal effect by foliage application, plastic box (Table 20, symbol O); format: in vivo, lambsquarters (Chenopodium album); conditions: foliage application, three weeks after application
In short: as §1

redroot pigweed = test: Test Example 5: herbicidal effect by foliage application, plastic box (Table 20, symbol N); format: in vivo, redroot pigweed (Amaranthus retroflexus); conditions: foliage application, three weeks after application
In short: as §1

Italian ryegrass = test: Test Example 5: herbicidal effect by foliage application, plastic box (Table 20, symbol K); format: in vivo, Italian ryegrass (Lolium multiflorum); conditions: foliage application, three weeks after application
In short: as §1

lambsquarters [5] = test: Test Example 4: herbicidal effect by soil treatment (Table 19, symbol O); format: in vivo, lambsquarters (Chenopodium album)
In short: as §2

wild oat = test: Test Example 4: herbicidal effect by soil treatment (Table 19, symbol I); format: in vivo, wild oat (Avena fatua)
In short: as §2

barnyard grass = test: Test Example 4: herbicidal effect by soil treatment (Table 19, symbol H); format: in vivo, barnyard grass (Echinochloa crus-galli)
In short: as §2

velvetleaf [6] = test: Test Example 4: herbicidal effect by soil treatment (Table 19, symbol M); format: in vivo, velvetleaf (Abutilon theophrasti)
In short: as §2

blackgrass = test: Test Example 4: herbicidal effect by soil treatment (Table 19, symbol J); format: in vivo, blackgrass (Alopecurus myosuroides)
In short: as §2

Japanese bulrush = test: Test Example 2: herbicidal activity, application during weed generation under submerged conditions (Table 17, symbol B); format: in vivo, Japanese bulrush (Schoenoplectus juncoides); conditions: application during weed generation, submerged conditions
In short: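 3-wk visual-criteria score after one water-surface dose. Emulsion formulation, water-diluted to set rate; applied at 1–2 leaf stage; alluvial soil, 4 cm standing water; seeds co-sown; greenhouse 25–30° C.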

Structure (SMILES)	M: velvetleaf, herbicidal effect (velvetleaf [1]; AAH 320 g/ha)	R: persian speedwell, herbicidal effect rating (persian speedwell; AAH 320 g/ha)	F: southern crabgrass, herbicidal effect rating (southern crabgrass; AAH 320 g/ha)	P: chickweed, herbicidal effect (chickweed [2]; AAH 320 g/ha)	Herbicidal effect on C: oval-leafed pondweed (grade 0-5) (oval-leafed pondweed; 320 g/ha applied herbicide)	P: chickweed, herbicidal effect rating (chickweed [3]; AAH 320 g/ha)	G: green foxtail, herbicidal effect rating (green foxtail; AAH 320 g/ha)	L: windgrass, herbicidal effect (windgrass; AAH 320 g/ha)	O: lambsquarters, herbicidal effect (lambsquarters [4]; AAH 320 g/ha)	N: redroot pigweed, herbicidal effect (redroot pigweed; AAH 320 g/ha)	K: Italian ryegrass, herbicidal effect (Italian ryegrass; AAH 320 g/ha)	O: lambsquarters, herbicidal effect rating (lambsquarters [5]; AAH 320 g/ha)	I: wild oat, herbicidal effect rating (wild oat; AAH 320 g/ha)	H: barnyard grass, herbicidal effect rating (barnyard grass; AAH 320 g/ha)	M: velvetleaf, herbicidal effect rating (velvetleaf [6]; AAH 320 g/ha)	J: blackgrass, herbicidal effect rating (blackgrass; AAH 320 g/ha)	herbicidal effect rating, B: Japanese bulrush (Japanese bulrush; AAH 320 g/ha)	other results
Cc1nn(C)c(=O)c(-c2c(-c3ccc(OCC4CC4(F)F)cc3)sc3ccccc23)c1O (centres unmarked) [1-138]	4 (Herbicidal rate of 70% or more and less than 90%)	5 (Herbicidal rate of 90% or more (almost completely withered))	0 (Herbicidal rate of 5% or less (almost no effect))	5 (Herbicidal rate of 90% or more (almost completely withered))	3 (Herbicidal rate of 40% or more and less than 70%)	4 (Herbicidal rate of 70% or more and less than 90%)	4 (Herbicidal rate of 70% or more and less than 90%)	5 (Herbicidal rate of 90% or more (almost completely withered))	4 (Herbicidal rate of 70% or more and less than 90%)	3 (Herbicidal rate of 40% or more and less than 70%)	5 (Herbicidal rate of 90% or more (almost completely withered))	5 (Herbicidal rate of 90% or more (almost completely withered))	0 (Herbicidal rate of 5% or less (almost no effect))	5 (Herbicidal rate of 90% or more (almost completely withered))	3 (Herbicidal rate of 40% or more and less than 70%)	3 (Herbicidal rate of 40% or more and less than 70%)	3 (Herbicidal rate of 40% or more and less than 70%)	–
CSCCOc1ccc(-c2sc3ccccc3c2-c2c(O)c(C)nn(C)c2=O)cc1 [1-141]	4 (Herbicidal rate of 70% or more and less than 90%)	5 (Herbicidal rate of 90% or more (almost completely withered))	4 (Herbicidal rate of 70% or more and less than 90%)	5 (Herbicidal rate of 90% or more (almost completely withered))	0 (Herbicidal rate of 5% or less (almost no effect))	4 (Herbicidal rate of 70% or more and less than 90%)	5 (Herbicidal rate of 90% or more (almost completely withered))	5 (Herbicidal rate of 90% or more (almost completely withered))	5 (Herbicidal rate of 90% or more (almost completely withered))	5 (Herbicidal rate of 90% or more (almost completely withered))	5 (Herbicidal rate of 90% or more (almost completely withered))	5 (Herbicidal rate of 90% or more (almost completely withered))	0 (Herbicidal rate of 5% or less (almost no effect))	4 (Herbicidal rate of 70% or more and less than 90%)	4 (Herbicidal rate of 70% or more and less than 90%)	0 (Herbicidal rate of 5% or less (almost no effect))	3 (Herbicidal rate of 40% or more and less than 70%)	–
Cc1nn(C)c(=O)c(-c2c(-c3ccc(OCC4CC4)cc3)sc3ccccc23)c1O [1-142]	1 (Herbicidal rate of 5% or more and less than 20%)	5 (Herbicidal rate of 90% or more (almost completely withered))	0 (Herbicidal rate of 5% or less (almost no effect))	5 (Herbicidal rate of 90% or more (almost completely withered))	5 (Herbicidal rate of 90% or more (almost completely withered))	2 (Herbicidal rate of 20% or more and less than 40%)	0 (Herbicidal rate of 5% or less (almost no effect))	1 (Herbicidal rate of 5% or more and less than 20%)	3 (Herbicidal rate of 40% or more and less than 70%)	2 (Herbicidal rate of 20% or more and less than 40%)	0 (Herbicidal rate of 5% or less (almost no effect))	5 (Herbicidal rate of 90% or more (almost completely withered))	0 (Herbicidal rate of 5% or less (almost no effect))	3 (Herbicidal rate of 40% or more and less than 70%)	3 (Herbicidal rate of 40% or more and less than 70%)	0 (Herbicidal rate of 5% or less (almost no effect))	2 (Herbicidal rate of 20% or more and less than 40%)	–
COCCOc1ccc(-c2sc3ccccc3c2-c2c(O)c(C)nn(C)c2=O)cc1 [1-148]	–	–	–	–	–	–	–	–	–	–	–	–	–	–	–	–	–	M: velvetleaf, herbicidal effect (velvetleaf [1]; AAH 368 g/ha): 5 (Herbicidal rate of 90% or more (almost completely withered)); R: persian speedwell, herbicidal effect rating (persian speedwell; AAH 368 g/ha): 5 (Herbicidal rate of 90% or more (almost completely withered)); F: southern crabgrass, herbicidal effect rating (southern crabgrass; AAH 368 g/ha): 4 (Herbicidal rate of 70% or more and less than 90%); P: chickweed, herbicidal effect (chickweed [2]; AAH 368 g/ha): 5 (Herbicidal rate of 90% or more (almost completely withered)); Herbicidal effect on C: oval-leafed pondweed (grade 0-5) (oval-leafed pondweed; 368 g/ha applied herbicide): 3 (Herbicidal rate of 40% or more and less than 70%); P: chickweed, herbicidal effect rating (chickweed [3]; AAH 368 g/ha): 5 (Herbicidal rate of 90% or more (almost completely withered)); G: green foxtail, herbicidal effect rating (green foxtail; AAH 368 g/ha): 5 (Herbicidal rate of 90% or more (almost completely withered)); L: windgrass, herbicidal effect (windgrass; AAH 368 g/ha): 4 (Herbicidal rate of 70% or more and less than 90%); O: lambsquarters, herbicidal effect (lambsquarters [4]; AAH 368 g/ha): 5 (Herbicidal rate of 90% or more (almost completely withered)); N: redroot pigweed, herbicidal effect (redroot pigweed; AAH 368 g/ha): 5 (Herbicidal rate of 90% or more (almost completely withered)); K: Italian ryegrass, herbicidal effect (Italian ryegrass; AAH 368 g/ha): 5 (Herbicidal rate of 90% or more (almost completely withered)); O: lambsquarters, herbicidal effect rating (lambsquarters [5]; AAH 368 g/ha): 5 (Herbicidal rate of 90% or more (almost completely withered)); I: wild oat, herbicidal effect rating (wild oat; AAH 368 g/ha): 2 (Herbicidal rate of 20% or more and less than 40%); H: barnyard grass, herbicidal effect rating (barnyard grass; AAH 368 g/ha): 5 (Herbicidal rate of 90% or more (almost completely withered)); M: velvetleaf, herbicidal effect rating (velvetleaf [6]; AAH 368 g/ha): 4 (Herbicidal rate of 70% or more and less than 90%); J: blackgrass, herbicidal effect rating (blackgrass; AAH 368 g/ha): 1 (Herbicidal rate of 5% or more and less than 20%); herbicidal effect rating, B: Japanese bulrush (Japanese bulrush; AAH 368 g/ha): 3 (Herbicidal rate of 40% or more and less than 70%)
